Data on 4 compounds can be found in patent US10847829B2, “Quinone and hydroquinone based flow battery” (President and Fellows of Harvard College, priority 2013, dated 2020).

Data set [1] can be described thus: Solubility. To be noted: pH 0. In kind it is physicochemical.
The nature of data set [2]: Cyclic voltammetry (CV). Type of data set: physicochemical. The settings on record: about 1 mM in 1M sulfuric acid in water. The method, then: [drawing 47] (concentration about 1 mM in 1M sulfuric acid in water) was studied by cyclic voltammetry (CV).
[drawing 48] (concentration about 1 mM in 1M sulfuric acid in water) was studied by CV.
[drawing 50] (concentration about 1 mM in 1M sulfuric acid in water) was studied by CV.
[drawing 53] (concentration about 1 mM in 1M sulfuric acid in water) was studied by CV.

As a reminder, the solubility is the dissolved amount per volume that the medium holds. For the compound “9,10-anthraquinone-2,7-disulfonate [Scheme 1 ID 1]”, the solubility in data set [1] is approximately 1000 mM.
In the case of `O=C1c2ccccc2C(=O)c2c(O)c(S(=O)(=O)O)cc(O)c21` [Example 2, 1,4-dihydroxy-9,10-anthraquinone-3-sulfonic acid], in data set [2], the “redox peaks location, higher-potential set” value is given as approximately 1.08 V and the “redox peaks location, lower-potential set” value is on record as approximately 0.11 V.
The matching figures for `O=C1c2ccccc2C(=O)c2c1cc(S(=O)(=O)O)c(O)c2O` [Example 3, 1,2-dihydroxy-9,10-anthraquinone-3-sulfonic acid]: approximately 1.3 V and approximately 0.10 V.
Consider `O=C1c2ccccc2C(=O)c2c(O)c(SCCS(=O)(=O)O)c(SCCS(=O)(=O)O)c(O)c21` [Example 6, 2,2′-((1,4-dihydroxy-9,10-dioxo-9,10-dihydroanthracene-2,3-diyl)bis(sulfanediyl))bis(ethane-1-sulfonic acid)], for which, in data set [2], the “redox peaks location, higher-potential set” value was approximately 1.08 V and the “redox peaks location, lower-potential set” value is approximately 0.11 V.
